Experiments:
Type in all cases: cell-based
SKOV3-TR [1] = assay: Crystal violet staining, cell survival rate and cell count, resistant line; details: 3 days; for anticancer-enhancing effect of doxetaxel, optical density at 570 nm (crystal violet) / anticancer-enhancing effect of paclitaxel, optical density at 570 nm (crystal violet): S-form 0.5 μM or 2 μM pretreated 4 hours; for anticancer-enhancing effect of doxetaxel, optical density at 570 nm (crystal violet): then 0.9 μM doxetaxel, compared to doxetaxel+ethanol group; for anticancer-enhancing effect of paclitaxel, optical density at 570 nm (crystal violet): then 4 μM paclitaxel, compared to paclitaxel+ethanol group; for optical density at 570 nm (crystal violet), anticancer drug alone: 4 μM paclitaxel or 0.9 μM doxetaxel, compared to None or DMSO-treated groups
Experimental: (§1) The two cancer cell lines growing on a 12-well plate were pretreated with 102 S-forms at a low concentration (0.5 μM) and a high concentration (2 μM) for 4 hours, and the SKOV3-TR cell line was then treated with 4 μM paclitaxel, and the SKOV3 cell line was treated with 0.05 μM paclitaxel. For the morphological analysis of the cells, the cells treated with None (a group that was treated with nothing), DMSO (a paclitaxel solvent), ethanol (EtOH) (an S-form solvent), DMSO+EtOH, paclitaxel, paclitaxel+ethanol (Pacli+EtOH), and 102 S-forms were analyzed after 1, 2, and 3 days, and images were captured. For cellular metabolism analysis, WST-1 analyses were performed after 3 days of the combined treatment with paclitaxel and S-forms. The cell survival rates were analyzed on the same experimental groups using a crystal violet staining method.
(§2) The two cell lines growing on a 12-well plate were pretreated with an S-form at a low concentration (0.5 μM) and a high concentration (2 μM) for 4 hours, and the SKOV3-TR cell line was then treated with 0.9 μM doxetaxel, and the SKOV3 cell line was treated with 0.5 μM doxetaxel. For the morphological analysis of the cells, the cells treated with None (a group that was treated with nothing), DMSO (a doxetaxel solvent), ethanol (EtOH) (an S-form solvent), DMSO+EtOH, doxetaxel, doxetaxel+ethanol (Doxetaxel+EtOH), and S-forms were analyzed after 1, 2, and 3 days, and images were captured. For cellular metabolism analysis, WST-1 analyses were performed after 3 days of the combined treatment with doxetaxel and S-forms. The cell survival rates were analyzed on the same experimental groups using a crystal violet staining method.
Based on the crystal violet staining in which the cell survival rates and the cell counts were analyzed, a decrease in cell counts in SKOV3-TR and SKOV3 by treatment with paclitaxel was induced through a decrease in cell survival rate. […] The crystal violet staining results of SKOV3-TR by treatment with paclitaxel are shown in FIG. 11, and the crystal violet staining results of SKOV3 are shown in FIG. 12. The crystal violet staining results of SKOV3-TR by treatment with doxetaxel are shown in FIG. 25, and the crystal violet staining results of SKOV3 are shown in FIG. 26.
The optical densities at 570 nm were reduced with the decreasing cell counts in the paclitaxel-treated groups due to the phenomena such as the induction of cell death and the inhibition of cell growth in SKOV3-TR and SKOV3, compared to the None or DMSO-treated groups. […] Also, it can be seen that the dose-response relationship was satisfied because a decrease in cell survival rate by paclitaxel in SKOV3-TR was further promoted at a high concentration (2 μM) of the S-forms as compared to a low concentration (0.5 μM) of the S-forms. For the purpose of analysis, images of the 102 experimental groups after the cell lines were stained with crystal violet were captured after 3 days of the treatment. The staining degree was determined by ELISA by measuring the optical densities at 570 nm through dye elution as in the WST-1 analysis. During the ELISA analysis, the baseline was applied to the optical density of the paclitaxel+ethanol (Pacli+EtOH)-treated group as the control group. The optical density results of SKOV3-TR by treatment with the 102 S-forms and the optical density results of SKOV3 by treatment with the 102 S-forms are shown in FIGS. 13 to 20.
The optical densities at 570 nm were reduced with the decreasing cell counts in the doxetaxel-treated groups due to the phenomena such as the induction of cell death and the inhibition of cell growth in SKOV3-TR and SKOV3, compared to the None or DMSO-treated groups. […] Also, it can be seen that the dose-response relationship was satisfied because a decrease in cell survival rate by doxetaxel in SKOV3-TR was further promoted at a high concentration (2 μM) of the S-forms as compared to a low concentration (0.5 μM) of the S-forms. […]

SKOV3-TR [2] = assay: WST-1 analysis of cellular metabolism, resistant line; details: 4 μM paclitaxel or 0.9 μM doxetaxel, 3 days, compared to None or DMSO-treated groups
Experimental: (§3) A cell experiment was performed on an epithelial ovarian cancer cell line SKOV3 and SKOV3-TR which is derived therefrom and produced as a resistant cancer cell line to having resistance to the anticancer drug paclitaxel.
as §1, with “For cellular metabolism analysis, WST-1 analyses were performed after 3 days of the combined treatment with paclitaxel and S-forms.” left out
(§4) The two cell lines growing on a 12-well plate were pretreated with an S-form at a low concentration (0.5 μM) and a high concentration (2 μM) for 4 hours, and the SKOV3-TR cell line was then treated with 0.9 μM doxetaxel, and the SKOV3 cell line was treated with 0.5 μM doxetaxel. […] The cell survival rates were analyzed on the same experimental groups using a crystal violet staining method. […]

SKOV3 [3] = assay: WST-1 analysis of cellular metabolism, parental line; details: 0.05 μM paclitaxel or 0.5 μM doxetaxel, 3 days, compared to None or DMSO-treated groups
Experimental: as §3
as §1, with “For cellular metabolism analysis, WST-1 analyses were performed after 3 days of the combined treatment with paclitaxel and S-forms.” left out
as §4

SKOV3 [4] = assay: Crystal violet staining, cell survival rate and cell count, parental line; details: 0.05 μM paclitaxel or 0.5 μM doxetaxel, 3 days, compared to None or DMSO-treated groups
Experimental: as §1, with “For cellular metabolism analysis, WST-1 analyses were performed after 3 days of the combined treatment with paclitaxel and S-forms.” left out
as §2, with “For cellular metabolism analysis, WST-1 analyses were performed after 3 days of the combined treatment with doxetaxel and S-forms. The cell survival rates were analyzed on the same experimental groups using a crystal violet staining method.” left out

## CCc1sc2ccccc2c1CN1CCN2C(=O)CNC(=O)C2C1 (stereo not drawn) [S101, 2-((2-ethylbenzothiophene-3-yl)methyl)hexahydro-2H-pyrazino[1,2-a]pyrazine-6,9-dione]
SKOV3-TR [1]
  anticancer-enhancing effect of doxetaxel, optical density at 570 nm (crystal violet): exhibited the anticancer-enhancing effect
  anticancer-enhancing effect of paclitaxel, optical density at 570 nm (crystal violet): exhibited the anticancer-enhancing effect

## CCc1sc2ccccc2c1CN1CCN2C(=O)C(C3CCCCC3)NC(=O)C2C1 (stereo not drawn) [S105]
SKOV3-TR [1]
  anticancer-enhancing effect of doxetaxel, optical density at 570 nm (crystal violet): exhibited the anticancer-enhancing effect
  anticancer-enhancing effect of paclitaxel, optical density at 570 nm (crystal violet): exhibited the anticancer-enhancing effect

## CC(=O)O[C@@]12CO[C@@H]1C[C@H](O)[C@@]1(C)C(=O)[C@H](O)C3=C(C)[C@@H](OC(=O)[C@H](O)[C@@H](NC(=O)OC(C)(C)C)c4ccccc4)C[C@@](O)([C@@H](OC(=O)c4ccccc4)[C@H]21)C3(C)C [doxetaxel]
SKOV3-TR [2]
  optical density at 450 nm (WST-1), anticancer drug alone: reduced
SKOV3 [3]
  optical density at 450 nm (WST-1), anticancer drug alone: reduced
SKOV3-TR [1]
  optical density at 570 nm (crystal violet), anticancer drug alone: reduced
SKOV3 [4]
  optical density at 570 nm (crystal violet), anticancer drug alone: reduced

## CC(=O)O[C@H]1C(=O)[C@@]2(C)[C@H]([C@H](OC(=O)c3ccccc3)[C@]3(O)C[C@H](OC(=O)[C@H](O)[C@@H](NC(=O)c4ccccc4)c4ccccc4)C(C)=C1C3(C)C)[C@]1(OC(C)=O)CO[C@@H]1C[C@@H]2O [paclitaxel]
SKOV3-TR [2]
  optical density at 450 nm (WST-1), anticancer drug alone: reduced
SKOV3 [3]
  optical density at 450 nm (WST-1), anticancer drug alone: reduced
SKOV3-TR [1]
  optical density at 570 nm (crystal violet), anticancer drug alone: reduced
SKOV3 [4]
  optical density at 570 nm (crystal violet), anticancer drug alone: reduced

Source: patent publication US20230019094A1, “NOVEL COMPOUND AND PHARMACEUTICAL COMPOSITION FOR PREVENTION OR TREATMENT OF CANCER COMPRISING SAME” (HOLOSMEDIC, priority 2019, published 2023)
